According to US20230270804A1, “ANTI-HYPERCHOLESTEROLEMIA COMPOSITION AND A METHOD OF MANUFACTURING THE SAME” (NBI BIOSCIENCES PRIVATE LIMITED, priority 2020, published 2023):

Experiments:
Format in all cases: in vivo, Wistar strain albino rats
[1] = Prophylactic study: organ weights after sacrifice; conditions: HFD+normal diet
Experimental: (§2) The prophylactic study which lasted 90 days used 6 rats per group. […] The 6 groups were as follows: • 1. Normal Control • 2. High Fat Diet (HFD) 1 ml 1/d+Normal Diet • 3. High Fat Diet (HFD)+Normal Diet+the composition of the present invention (OD) • 4, High Fat Diet (HFD)+Normal Diet+the composition of the present invention (BD) • 5. […] The body weights were recorded to the nearest gram (g) with proper tare to 0.0000 with the subject at steady state on the weighing machine. The same weighing machine was used for all the subjects. The machine was tested with a known set of weights for any error.

[2] = Therapeutic study: organ body weight after necropsy
Experimental: as §2

[3] = tested on: hypercholesterolemia induced wistar rats' models; assay: Therapeutic study: lipid profile (TC, TG, HDL-C, LDL-C, VLDL)
Experimental: Wistar strain albino rats of body weight ranging from 190-225 g were selected for the present study. The temperature and humidity were kept at optimum (22+2° C.; 40-70% and animals were exposed to natural chronological day night cycles. The experiments were carried out in conformity with the Institutional Animal Ethics Committee.
The 6 groups were as follows: • 1. Normal Control • 2.
(§1) 1.5-2 ml blood sample was taken from retino-orbital chamber in vials for biochemical estimations at every 15 days. Investigations performed included detailed Total Cholesterol—TC (mg/dl), Triglyceride—TG (mg/dl), High Density Lipoprotein—HDL-C (mg/dl), Low Density Lipoprotein—LDL-C (mg/dl), Very Low-Density Lipoprotein—VLDL (mg/dl), WBC (10^3/u1), RBC (10^6/u1), Hb (g/dl), PCV (%), Reticulocyte (%), Platelet count 10^5/mm^3, Clotting time (Sec), Neutrophils, Lymphocyte, Monocyte and Eosinophil. The estimations were done with Ecoline kits from Erba Mannheim, ERBA diagnostics Mannheml, Germany using Semi Autoanalyzer RX50 of MicroLabs Instruments and COUNCELL21 of Tulip Diagnostics Pvt. Ltd. Lipid peroxidation (Plasma & Liver), HMG Co-Reductase, Creatine phosphokinase (CPK), Lactate dehydrogenase (LDH), SGOT and SGPT were estimated at the end of both the studies using the kits.

[4] = tested on: Creatine phosphokinase (CPK), Lactate dehydrogenase (LDH), SGOT and SGPT; assay: Therapeutic study: CPK, LDH, SGOT, SGPT
Experimental: as §1

[5] = Prophylactic study: hematological parameters; conditions: HFD+normal diet, day 0
[6] = Prophylactic study: HbA1c / blood glucose level; conditions: HFD fed groups

CC(C)c1c(C(=O)Nc2ccccc2)c(-c2ccccc2)c(-c2ccc(F)cc2)n1CC[C@@H](O)C[C@@H](O)CC(=O)O [Statin, Atorvastatin]
Heart weight [1]: 2.79 ± 0.03 g/100 g bd · wt
Intestine weight [1]: 3.54 ± 0.03
Kidney weight [1]: 1.15 ± 0.03 g/100 g bd · wt
Liver weight [1]: 3.90 ± 0.05 g/100 g bd · wt
Lungs weight [1]: 1.96 ± 0.02 g/100 g bd · wt
Spleen weight [1]: 0.65 ± 0.03
pancreas weight [1]: 0.90 ± 0.05 g/100 g bd · wt
Intestine (organ body weight after necropsy) ([2]; HFD Continued): 2.00 ± 0.02
Kidney (organ body weight after necropsy) ([2]; HFD Continued): 2.82 ± 0.06 g/100 g bd. wt
Liver (organ body weight after necropsy) ([2]; HFD Continued): 4.51 ± 0.12 g/100 g
Lungs (organ body weight after necropsy) ([2]; HFD Continued): 0.65 ± 0.03 g/100 g bd. wt
Pancrease (organ body weight after necropsy) ([2]; HFD Continued): 0.89 ± 0.05 g/100 g bd. wt
Spleen (organ body weight after necropsy) ([2]; HFD Continued): 1.19 ± 0.02
Intestine (organ body weight after necropsy) ([2]; HFD Discontinued): 2.00 ± 0.02
Kidney (organ body weight after necropsy) ([2]; HFD Discontinued): 2.84 ± 0.04 g/100 g bd. wt
Liver (organ body weight after necropsy) ([2]; HFD Discontinued): 4.37 ± 0.05 g/100 g
Lungs (organ body weight after necropsy) ([2]; HFD Discontinued): 0.66 ± 0.03 g/100 g bd. wt
Pancrease (organ body weight after necropsy) ([2]; HFD Discontinued): 0.91 ± 0.03 g/100 g bd. wt
Spleen (organ body weight after necropsy) ([2]; HFD Discontinued): 1.17 ± 0.03
HDL-C ([3]; HFD continued, day 0): 40.33 ± 2.08 mg/dL
LDL-C ([3]; HFD continued, day 0): 91.67 ± 3.06 mg/dL
TC ([3]; HFD continued, day 0): 139.67 ± 4.04 mg/dL
TG ([3]; HFD continued, day 0): 38.67 ± 2.08 mg/dL
VLDL ([3]; HFD continued, day 0): 3.87 ± 0.31 mg/dL
HDL-C ([3]; HFD continued, day 15): 40.83 ± 1.15 mg/dL
LDL-C ([3]; HFD continued, day 15): 92.83 ± 3.82 mg/dL
TC ([3]; HFD continued, day 15): 138.00 ± 4.00 mg/dL
TG ([3]; HFD continued, day 15): 38.00 ± 1.80 mg/dL
HDL-C ([3]; HFD continued, day 30): 42.45 ± 0.44 mg/dL
LDL-C ([3]; HFD continued, day 30): 91.33 ± 0.21 mg/dL
TC ([3]; HFD continued, day 30): 134.00 ± 3.00 mg/dL
TG ([3]; HFD continued, day 30): 37.30 ± 0.44 mg/dL
VLDL ([3]; HFD continued, day 30): 3.91 ± 0.05 mg/dL
HDL-C ([3]; HFD continued, day 45): 40.20 ± 2.07 mg/dL
LDL-C ([3]; HFD continued, day 45): 90.37 ± 0.85 mg/dL
TC ([3]; HFD continued, day 45): 126.33 ± 4.51 mg/dL
TG ([3]; HFD continued, day 45): 34.73 ± 1.37 mg/dL
VLDL ([3]; HFD continued, day 45): 3.86 ± 0.11 mg/dL
HDL-C ([3]; HFD continued, day 60): 39.82 ± 1.88 mg/dL
LDL-C ([3]; HFD continued, day 60): 89.52 ± 1.20 mg/dL
TC ([3]; HFD continued, day 60): 125.15 ± 4.20 mg/dL
TG ([3]; HFD continued, day 60): 34.41 ± 1.26 mg/dL
VLDL ([3]; HFD continued, day 60): 3.82 ± 0.10 mg/dL
HDL-C ([3]; HFD discontinued, day 0): 41.67 ± 1.53 mg/dL
LDL-C ([3]; HFD discontinued, day 0): 90.67 ± 3.21 mg/dL
TC ([3]; HFD discontinued, day 0): 134.33 ± 4.04 mg/dL
TG ([3]; HFD discontinued, day 0): 38.33 ± 2.52 mg/dL
VLDL ([3]; HFD discontinued, day 0): 3.83 ± 0.38 mg/dL
HDL-C ([3]; HFD discontinued, day 15): 40.17 ± 0.58 mg/dL
LDL-C ([3]; HFD discontinued, day 15): 90.60 ± 3.55 mg/dL
TC ([3]; HFD discontinued, day 15): 133.00 ± 4.58 mg/dL
TG ([3]; HFD discontinued, day 15): 37.50 ± 2.00 mg/dL
VLDL ([3]; HFD discontinued, day 15): 3.91 ± 0.34 mg/dL
HDL-C ([3]; HFD discontinued, day 30): 41.23 ± 0.38 mg/dL
LDL-C ([3]; HFD discontinued, day 30): 85.03 ± 0.21 mg/dL
TC ([3]; HFD discontinued, day 30): 129.33 ± 2.08 mg/dL
TG ([3]; HFD discontinued, day 30): 35.97 ± 0.74 mg/dL
VLDL ([3]; HFD discontinued, day 30): 3.88 ± 0.04 mg/dL
HDL-C ([3]; HFD discontinued, day 45): 39.70 ± 0.46 mg/dL
TC ([3]; HFD discontinued, day 45): 117.67 ± 6.66 mg/dL
TG ([3]; HFD discontinued, day 45): 34.53 ± 0.83 mg/dL
VLDL ([3]; HFD discontinued, day 45): 3.69 ± 0.05 mg/dL
HDL-C ([3]; HFD discontinued, day 60): 38.94 ± 0.82 mg/dL
LDL-C ([3]; HFD discontinued, day 60): 83.69 ± 1.18 mg/dL
TC ([3]; HFD discontinued, day 60): 116.49 ± 6.04 mg/dL
TG ([3]; HFD discontinued, day 60): 34.19 ± 0.83 mg/dL
level of HDL ([3]; therapeutic study, 60 days): 39 mg/dL
reduction in LDL ([3]; therapeutic study, 60 days): 8%
reduction in total cholesterol ([3]; therapeutic study, 60 days): 13%
Creatine phosphokinase ([4]; HFD Continued): 1.31 ± 0.08
LDH ([4]; HFD Continued): 288.32 ± 12.64 U/ml
SGOT ([4]; HFD Continued): 63.76 ± 2.92 U/ml
SGPT ([4]; HFD Continued): 53.82 ± 1.13 U/ml
LDH ([4]; HFD Discontinued): 284.07 ± 5.61 U/ml
SGOT ([4]; HFD Discontinued): 62.88 ± 3.43 U/ml
SGPT ([4]; HFD Discontinued): 64.69 ± 0.52 U/ml
CPK value increase ([4]; therapeutic study): 10%
SGOT reduction ([4]; therapeutic study): 16%
SGPT reduction ([4]; therapeutic study): 5%
Platelet count [5]: 1040 ± 15.2 10³/µL
Blood glucose level [6]: able to maintain Blood glucose level similar to normal diet group
